Patent US8329687B2, “Pyridooxazepine derivative and use thereof” (Takeda Pharmaceutical Company Limited, priority 2007, dated 2012)
Where a name gives a salt, the structure may show the parent alone.

Target: serotonin 5-HT2C receptor (VSV type isoform) stably expressed in CHO cell (Homo sapiens, UniProt P28335, I156V/I160V/N158S)
Assay: cell-based
Format: cell-based
Settings: for Emax: CHO, read-out: ratio relative to maximum response by 5-HT (1 μM)

serotonin 5-HT2C receptor (VSV type isoform) stably expressed in CHO cell, sequence (P28335 33-458 I156V/N158S/I160V limits assumed): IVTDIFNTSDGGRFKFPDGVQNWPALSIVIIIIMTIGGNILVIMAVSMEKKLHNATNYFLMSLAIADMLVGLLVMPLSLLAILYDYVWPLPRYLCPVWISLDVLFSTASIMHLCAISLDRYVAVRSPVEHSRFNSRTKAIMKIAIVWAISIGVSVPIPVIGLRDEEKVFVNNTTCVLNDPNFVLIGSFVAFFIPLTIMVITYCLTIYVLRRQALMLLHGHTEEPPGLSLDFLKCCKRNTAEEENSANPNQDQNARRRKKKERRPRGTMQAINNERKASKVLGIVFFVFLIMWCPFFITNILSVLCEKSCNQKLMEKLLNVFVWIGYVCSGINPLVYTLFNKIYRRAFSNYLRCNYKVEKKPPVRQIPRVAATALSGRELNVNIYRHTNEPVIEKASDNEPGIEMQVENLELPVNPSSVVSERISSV

Row | Compound | ratio relative to maximum response by 5-HT (1 μM) | Emax [%]
1 | CC(Oc1ccc2c(n1)OCCNC2)C1CC1.CC(Oc1ccc2c(n1)OCCNC2)C1CC1.O=C(O)CCC(=O)O (single isomer, unassigned; (+)) [Example 36, (+)-8-(1-cyclopropylethoxy)-2,3,4,5-tetrahydropyrido[3,2-f][1,4]oxazepine 0.5 succinate] | 104.7 | 
2 | CCOc1ccc2c(n1)OCCNC2 [Example 13, 8-ethoxy-2,3,4,5-tetrahydropyrido[3,2-f][1,4]oxazepine hydrochloride] |  | 97.4
3 | CC(C)(C)Oc1ccc2c(n1)OCCNC2 [Example 1, 8-tert-butoxy-2,3,4,5-tetrahydropyrido[3,2-f][1,4]oxazepine] |  | 98.6
4 | CC[C@@H](C)Oc1ccc2c(n1)OCCNC2 [Example 27, 8-{[(1R)-1-methylpropyl]oxy}-2,3,4,5-tetrahydropyrido[3,2-f][1,4]oxazepine hydrochloride] |  | 99.8
5 | CC(C)[C@@H](C)Oc1ccc2c(n1)OCCNC2 [Example 25, 8-{[(1R)-1,2-dimethylpropyl]oxy}-2,3,4,5-tetrahydropyrido[3,2-f][1,4]oxazepine hydrochloride] |  | 98.6
6 | CC(C)COc1ccc2c(n1)OCCNC2 [Example 3, 8-isobutoxy-2,3,4,5-tetrahydropyrido[3,2-f][1,4]oxazepine hydrochloride] |  | 101
7 | FC1(F)CCC(Oc2ccc3c(n2)OCCNC3)CC1 [Example 23, 8-[(4,4-difluorocyclohexyl)oxy]-2,3,4,5-tetrahydropyrido[3,2-f][1,4]oxazepine hydrochloride] |  | 83.8
8 | CC(C)Oc1ccc2c(n1)OCCNC2.CC(C)Oc1ccc2c(n1)OCCNC2.O=C(O)CCC(=O)O [Example 5, 8-isopropoxy-2,3,4,5-tetrahydropyrido[3,2-f][1,4]oxazepine 0.5 succinate] | 97.7 | 
9 | c1ccc(Oc2ccc3c(n2)OCCNC3)cc1 [Example 28, 8-phenoxy-2,3,4,5-tetrahydropyrido[3,2-f][1,4]oxazepine hydrochloride] |  | 91.2
10 | CC[C@H](C)Oc1ccc2c(n1)OCCNC2 [Example 26, 8-{[(1S)-1-methylpropyl]oxy}-2,3,4,5-tetrahydropyrido[3,2-f][1,4]oxazepine hydrochloride] |  | 97.6
11 | CC(Oc1ccc2c(n1)OCCNC2)C1CC1.CC(Oc1ccc2c(n1)OCCNC2)C1CC1.O=C(O)CCC(=O)O (centres unmarked) [Example 16, 8-(1-cyclopropylethoxy)-2,3,4,5-tetrahydropyrido[3,2-f][1,4]oxazepine 0.5 succinate] | 98.8 | 
12 | CC(C)Sc1ccc2c(n1)OCCNC2 [Example 37, 8-(isopropylthio)-2,3,4,5-tetrahydropyrido[3,2-f][1,4]oxazepine hydrochloride] |  | 94.5
13 | CC(C)[C@H](C)Oc1ccc2c(n1)OCCNC2 [Example 24, 8-{[(1S)-1,2-dimethylpropyl]oxy}-2,3,4,5-tetrahydropyrido[3,2-f][1,4]oxazepine hydrochloride] |  | 94.7
14 | CC(Oc1ccc2c(n1)OCCNC2)C1CC1.CC(Oc1ccc2c(n1)OCCNC2)C1CC1.O=C(O)CCC(=O)O (single isomer, unassigned; (-)) [Example 35, (−)-8-(1-cyclopropylethoxy)-2,3,4,5-tetrahydropyrido[3,2-f][1,4]oxazepine 0.5 succinate] | 93.7 | 
